Results as given in patent US20230165252A1, “ACTIVE COMPOUND COMBINATIONS” (Bayer Aktiengesellschaft, priority 2020, published 2023).
“And” between values parts separate entries of the source, which are not always exact repeats. Equal values may be shown once. Read-outs that look alike come from different tables or passages of the source.

Assays:
Assay type in all cases: cell-based
[1] = test system: Colletotrichum lindemuthianum; assay: in vitro-Test with Colletotrichum lindemuthianum (microtiter growth inhibition); conditions: for inhibition of growth at 0.004 ppm: applied alone at 0.004 ppm; for inhibition of growth at 0.02 ppm: applied alone at 0.020 ppm; for inhibition of growth at 0.1 ppm: applied alone at 0.1 ppm; for inhibition of growth at 0.5 ppm: applied alone at 0.5 ppm; for inhibition of growth at 0.04 ppm: applied alone at 0.04 ppm
Description: (§1) The degree of efficacy expressed in % is denoted: 0% means an efficacy, which corresponds to that of the control, while an efficacy of 100% means that no disease is observed.
(§2) If the actual fungicidal activity exceeds the calculated value, then the activity of the combination is super-additive, i.e. a synergistic effect exists. In this case, the efficacy, which was actually observed, must be greater than the value for the expected efficacy (E), that was calculated from the abovementioned formula.
(§3) Example: In Vitro-Test with Fungal Microorganisms
(§4) Wells of 96-well microtiter plates are filled with 10 μl of a preparation of test compound or compound combination in methanol+emulsifier alkylaryl-polyglycol-ether. Thereafter, the solvent is evaporated in a hood. At the next step, 100 μl of liquid potato dextrose medium is given into each well, that has been amended with an appropriate concentration of spores or mycelium suspension of the test fungus.
(§5) With the aid of a photometer, the extinction in all wells is measured at the wavelength of 620 nm.
(§6) The microtiter plates are incubated at 20° C. and 85% relative humidity. The inhibition of growth is determined again photometrically 3-5 days after the application. Efficacy is calculated in relation to the untreated control, 0% efficacy means fungal growth as high as in untreated control while 100% efficacy means no fungal growth is measured.

Cordana musae = assay: in vitro-Test with Cordana musae (microtiter growth inhibition); conditions: Neocordana musae, single substance, read-out: Efficacy; for inhibition of growth at 0.02 ppm: 0.020 ppm
Summary of the method: (§7)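 Cpd/combination in MeOH + emulsifier into wells, solvent evaporated; liquid potato dextrose medium + spore/mycelium suspension added. OD 620 nm at t0; incubate 20° C./85% RH; OD 620 nm again at 3-5 d. % efficacy vs untreated control; combinations compared with expected efficacy (E) calculated by formula.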

Diaporthe citri = assay: in vitro-Test with Diaporthe citri (microtiter growth inhibition); conditions: Diaporthe citri, applied alone, read-out: Efficacy; for inhibition of growth at 0.02 ppm: 0.020 ppm
Summary of the method: as §7

Fusarium culmorum = assay: in vitro-Test with Fusarium culmorum (microtiter growth inhibition); conditions: Fusarium culmorum, read-out: Efficacy; for inhibition of growth at 0.02 ppm: 0.020 ppm
Description: as §1, §2, §3, §4, §5, §6

[2] = test system: Ustilago segetum var. avenae; assay: in vitro-Test with Ustilago segetum var. avenae (microtiter growth inhibition); conditions: for inhibition of growth at 0.02 ppm: 0.020 ppm
Summary of the method: as §7

Alternaria alternate = assay: in vitro-Test with Alternaria alternate (microtiter growth inhibition); conditions: Alternaria, alone, read-out: Efficacy %
Summary of the method: as §7

Cercospora beticola = assay: in vitro-Test with Cercospora beticola (microtiter growth inhibition)
Summary of the method: as §7

Parastagonospora nodorum = assay: in vitro-Test with Parastagonospora nodorum (microtiter growth inhibition)
Summary of the method: as §7

Botrytis cinerea = assay: in vitro-Test with Botrytis cinerea (microtiter growth inhibition); conditions: for Efficacy: applied alone
Summary of the method: as §7

[3] = Colletotrichum lindemuthianum, read-out: Efficacy %
[4] = compound alone, read-out: Efficacy %
[5] = single compound, read-out: Efficacy %
[6] = Parastagonospora nodorum, compound alone, 0.004 ppm, read-out: Efficacy %
[7] = Parastagonospora nodorum, compound alone, 0.020 ppm, read-out: Efficacy %
[8] = Parastagonospora nodorum, compound alone, 0.1 ppm, read-out: Efficacy %
[9] = Parastagonospora nodorum, compound alone, 0.5 ppm, read-out: Efficacy %
[10] = Colletotrichum lindemuthianum, applied alone at 0.008 ppm, read-out: Efficacy %
[11] = Colletotrichum lindemuthianum, applied alone at 1.0 ppm, read-out: Efficacy %
[12] = compound alone, 0.2 ppm, read-out: Efficacy %
[13] = Parastagonospora nodorum, compound alone, read-out: Efficacy %

Cc1ccc(C(F)(F)CNC(=O)c2c(Oc3cccc(C4CC4)c3F)nnc(Cl)c2C)c(Cl)c1 [Compound I-746, 6-chloro-N-[2-(2-chloro-4-methylphenyl)-2,2-difluoroethyl]-3-(3-cyclopropyl-2-fluoro-phenoxy)-5-methylpyridazine-4-carboxamide]
inhibition of growth at 0.004 ppm [1, 3]: 0% | inhibition of growth at 0.02 ppm [1, 3]: 14% | inhibition of growth at 0.1 ppm [1, 3]: 100% | inhibition of growth at 0.5 ppm [1, 3]: 100% | inhibition of growth at 0.004 ppm (Cordana musae): 0% | inhibition of growth at 0.02 ppm (Cordana musae): 10% | inhibition of growth at 0.1 ppm (Cordana musae): 79% | inhibition of growth at 0.5 ppm (Cordana musae): 100% | inhibition of growth at 0.004 ppm (Diaporthe citri): 0% | inhibition of growth at 0.02 ppm (Diaporthe citri): 0% | inhibition of growth at 0.1 ppm (Diaporthe citri): 2% | inhibition of growth at 0.5 ppm (Diaporthe citri): 51% | inhibition of growth at 0.004 ppm (Fusarium culmorum): 0% | inhibition of growth at 0.02 ppm (Fusarium culmorum): 0% | inhibition of growth at 0.1 ppm (Fusarium culmorum): 0% | inhibition of growth at 0.5 ppm (Fusarium culmorum): 0% | inhibition of growth at 0.004 ppm [2, 4]: 0% | inhibition of growth at 0.02 ppm [2, 4]: 2% | inhibition of growth at 0.1 ppm [2, 4]: 0% | inhibition of growth at 0.5 ppm [2, 4]: 0% | inhibition of growth at 0.004 ppm [2, 5]: 0% | inhibition of growth at 0.02 ppm [2, 5]: 2% | inhibition of growth at 0.1 ppm [2, 5]: 0% | inhibition of growth at 0.5 ppm [2, 5]: 0% | inhibition of growth at 0.004 ppm (Alternaria alternate): 0% | inhibition of growth at 0.02 ppm (Alternaria alternate): 0% | inhibition of growth at 0.1 ppm (Alternaria alternate): 22% | inhibition of growth at 0.5 ppm (Alternaria alternate): 100% | inhibition of growth at 0.004 ppm (Cercospora beticola; Cercospora beticola, alone, 0.004 ppm, read-out: Efficacy %): 0% | inhibition of growth at 0.02 ppm (Cercospora beticola; Cercospora beticola, alone, 0.020 ppm, read-out: Efficacy %): 5% | inhibition of growth at 0.1 ppm (Cercospora beticola; Cercospora beticola, alone, 0.1 ppm, read-out: Efficacy %): 4% | inhibition of growth at 0.5 ppm (Cercospora beticola; Cercospora beticola, alone, 0.5 ppm, read-out: Efficacy %): 26% | inhibition of growth at 0.004 ppm (Parastagonospora nodorum; [6]): 0% | inhibition of growth at 0.02 ppm (Parastagonospora nodorum; [7]): 0% | inhibition of growth at 0.1 ppm (Parastagonospora nodorum; [8]): 31% | inhibition of growth at 0.5 ppm (Parastagonospora nodorum; [9]): 100%

CON=C(C(=O)OC)c1ccccc1CON=C(C)c1cccc(C(F)(F)F)c1 [(3.020) trifloxystrobin]
inhibition of growth at 0.008 ppm [1, 10]: 27% | inhibition of growth at 0.04 ppm [1, 3]: 56% | inhibition of growth at 0.2 ppm ([1]; Colletotrichum lindemuthianum, applied alone at 0.2 ppm, read-out: Efficacy %): 78% | inhibition of growth at 1 ppm [1, 11]: 79% | Efficacy % ([1]; applied alone at 0.2 ppm): 77% | inhibition of growth at 0.008 ppm (Botrytis cinerea; Botrytis cinerea, single active at 0.008 ppm, read-out: Efficacy %): 0% | inhibition of growth at 0.2 ppm (Botrytis cinerea; Botrytis cinerea, single active at 0.2 ppm, read-out: Efficacy %): 3% | inhibition of growth at 1 ppm (Botrytis cinerea; Botrytis cinerea, single active at 1.0 ppm, read-out: Efficacy %): 14% | inhibition of growth at 0.2 ppm [2, 12]: 53% | inhibition of growth at 1 ppm ([2]; compound alone, 1.0 ppm, read-out: Efficacy %): 82% | inhibition of growth at 0.008 ppm (Parastagonospora nodorum; Parastagonospora nodorum, compound alone, 0.008 ppm, read-out: Efficacy %): 36% | inhibition of growth at 0.04 ppm (Parastagonospora nodorum; [13]): 61% | inhibition of growth at 0.2 ppm (Parastagonospora nodorum; [13]): 75% | inhibition of growth at 1 ppm (Parastagonospora nodorum; Parastagonospora nodorum, compound alone, 1.0 ppm, read-out: Efficacy %): 83%

CC(C)c1ccc(Cl)cc1CN(C(=O)c1c(C(F)F)nn(C)c1F)C1CC1 [(2.038) isoflucypram]
Efficacy % ([1]; applied alone at 0.008 ppm): 15% and 8% | Efficacy % ([1]; applied alone at 1.0 ppm): 5% | Efficacy % (Botrytis cinerea; single active at 0.04 ppm): 43% and 57% | Efficacy % (Botrytis cinerea; single active at 0.2 ppm): 63% and 75% | Efficacy % (Botrytis cinerea; single active at 1.0 ppm): 83% and 87% | Efficacy % ([2]; compound alone, 0.008 ppm): 7% | Efficacy % ([2]; compound alone, 0.2 ppm): 100% and 98% | Efficacy % ([2]; compound alone, 1.0 ppm): 100%

Cc1ccc(C(F)(F)CNC(=O)c2c(Oc3cccc(C4CC4)c3F)nnc(Cl)c2C)c(C)c1 [Compound I-655, 6-chloro-3-(3-cyclopropyl-2-fluorophenoxy)-N-[2-(2,4-dimethylphenyl)-2,2-difluoroethyl]-5-methylpyridazine-4-carboxamide]
inhibition of growth at 0.004 ppm [1, 3]: 0% | inhibition of growth at 0.02 ppm [1, 3]: 20% | inhibition of growth at 0.1 ppm [1, 3]: 98% | inhibition of growth at 0.5 ppm [1, 3]: 100% | inhibition of growth at 0.004 ppm (Cordana musae): 2% | inhibition of growth at 0.02 ppm (Cordana musae): 4% | inhibition of growth at 0.1 ppm (Cordana musae): 100% | inhibition of growth at 0.5 ppm (Cordana musae): 100% | inhibition of growth at 0.004 ppm (Diaporthe citri): 0% | inhibition of growth at 0.02 ppm (Diaporthe citri): 0% | inhibition of growth at 0.1 ppm (Diaporthe citri): 13% | inhibition of growth at 0.5 ppm (Diaporthe citri): 100% | inhibition of growth at 0.004 ppm (Fusarium culmorum): 0% | inhibition of growth at 0.02 ppm (Fusarium culmorum): 7% | inhibition of growth at 0.1 ppm (Fusarium culmorum): 7% | inhibition of growth at 0.5 ppm (Fusarium culmorum): 19% | Efficacy (Botrytis cinerea; 0.004 ppm): 0% | Efficacy (Botrytis cinerea; 0.020 ppm): 0% | Efficacy (Botrytis cinerea; 0.1 ppm): 58% | Efficacy (Botrytis cinerea; 0.5 ppm): 100% | inhibition of growth at 0.004 ppm [2, 4]: 7% | inhibition of growth at 0.02 ppm [2, 4]: 6% | inhibition of growth at 0.1 ppm [2, 4]: 0% | inhibition of growth at 0.5 ppm [2, 4]: 0% | inhibition of growth at 0.004 ppm (Alternaria alternate): 0% | inhibition of growth at 0.02 ppm (Alternaria alternate): 0% | inhibition of growth at 0.1 ppm (Alternaria alternate): 20% | inhibition of growth at 0.5 ppm (Alternaria alternate): 100% | Efficacy (Parastagonospora nodorum; 0.004 ppm): 0% | Efficacy (Parastagonospora nodorum; 0.020 ppm): 0% | Efficacy (Parastagonospora nodorum; 0.1 ppm): 41% | Efficacy (Parastagonospora nodorum; 0.5 ppm): 100% | inhibition of growth at 0.004 ppm (Parastagonospora nodorum; [6]): 0% | inhibition of growth at 0.02 ppm (Parastagonospora nodorum; [7]): 0% | inhibition of growth at 0.1 ppm (Parastagonospora nodorum; [8]): 41% | inhibition of growth at 0.5 ppm (Parastagonospora nodorum; [9]): 100%

CCO[PH](=O)[O-].CCO[PH](=O)[O-].CCO[PH](=O)[O-].[Al+3] [(15.012) fosetyl-aluminium]
Efficacy % ([1]; applied alone at 0.8 ppm): 0% | Efficacy % ([1]; applied alone at 4 ppm): 7% | Efficacy % ([1]; applied alone at 20 ppm): 0% | Efficacy % ([1]; applied alone at 100 ppm): 53% | Efficacy % (Cercospora beticola; applied alone at 0.8 ppm): 0% | Efficacy % (Cercospora beticola; applied alone at 4 ppm): 0% | Efficacy % (Cercospora beticola; applied alone at 20 ppm): 4% | Efficacy % (Cercospora beticola; applied alone at 100 ppm): 15% | Efficacy % (Parastagonospora nodorum; compound alone, 0.8 ppm): 0% | Efficacy % (Parastagonospora nodorum; compound alone, 4 ppm): 2%

COc1cc(C)c(C(=O)c2c(OC)ccc(Br)c2C)c(OC)c1OC [(15.016) metrafenone]
inhibition of growth at 4 ppm ([1]; Colletotrichum lindemuthianum, applied alone at 4 ppm, read-out: Efficacy %): 15% | inhibition of growth at 20 ppm ([1]; Colletotrichum lindemuthianum, applied alone at 20 ppm, read-out: Efficacy %): 10% | inhibition of growth at 0.8 ppm (Botrytis cinerea; Botrytis cinerea, single active at 0.8 ppm, read-out: Efficacy %): 0% | inhibition of growth at 0.8 ppm (Cercospora beticola; Cercospora beticola, applied alone at 0.8 ppm, read-out: Efficacy %): 0% | inhibition of growth at 4 ppm (Cercospora beticola; Cercospora beticola, applied alone at 4 ppm, read-out: Efficacy %): 13%

CC1COC(Cn2cncn2)(c2ccc(Oc3ccc(Cl)cc3)cc2Cl)O1 (stereo not shown) [(1.002) difenoconazole]
inhibition of growth at 0.008 ppm [1, 10]: 2% | inhibition of growth at 0.04 ppm [1, 3]: 13% | inhibition of growth at 1 ppm [1, 11]: 13% | inhibition of growth at 0.008 ppm ([2]; compound alone, 0.008 ppm, read-out: Efficacy %): 14% | inhibition of growth at 0.2 ppm [2, 12]: 57% | inhibition of growth at 0.04 ppm (Parastagonospora nodorum; [13]): 16% | inhibition of growth at 0.2 ppm (Parastagonospora nodorum; [13]): 83% | Efficacy % (Parastagonospora nodorum; compound alone, 0.008 ppm): 0% | Efficacy % (Parastagonospora nodorum; compound alone, 1.0 ppm): 97%
